Test results as given in patent US6465476B1, “Immuno-modulator exhibiting antimicrobial and anti-mycrobacterial activities, method for producing the same and pharmaceutical preparation” (priority 1997, dated 2002).
Read-outs that look alike come from different tables or passages of the source.

Key:
[1] = test system: agent of leprosy (mycobacteria of leprosy); settings: leprosy patients
[2] = test system: tuberculosis mycobacteria H37Rv (USSR H37Rv); format: in vivo, tuberculosis mycobacteria; mice of the CBA line; settings: USSR H37Rv
[3] = in vivo; cited from earlier work
[4] = test system: Kyp-4 strain of leprosy mycobacteria; experiment: Antileprous activity in mice infected by Shepard's procedure; format: in vivo, leprosy mycobacteria; male mice of the CBA line; settings: after six months; isophonum dose 2.5 mg/kg
Source text: Antileprous activity of isophonum as compared with that of diuciphonum was studied on male mice of the CBA line infected with the laboratory Kyp-4 strain of leprosy mycobacteria taken in an amount of 5000 and introduced intraplantedly by Shepard's procedure. The experiment lasted six months from the 7th of February to the […] 1996. Observed were 5 groups of mice with 15 mice in each group. All the animals were kept under the same conditions of the vivarium on a standard diat.
The first group (controls): during six months of the experiment the mice received 0.5 ml of a starch suspension through a probe five times a week. After six months the animals were killed through a cervical dislocation of backbone, the organs were subjected to a bacterioscopic investigation, no pathologic deviations characteristic of any of the groups were found. The bacteriscopic investigation of the infected site was carried out by grinding the mouse foot in 2 ml of 0.1 percent solution of albumin, making a smear from 0.01 ml of the suspenstion and painting it by Ziel-Nielson's procedure and counting the number of leprosy micobacteria in 60 fields of vision to determine the number of micobacteria per mouse in each group.

[5] = test system: human mononucleator cells (T-lymphocytes); experiment: Proliferation of T-lymphocytes in cell culture in vitro (3H-thymidine); format: cell-based
Procedure: The influence of the test compound on the proliferation of T-lymphocytes was studied on a model in vitro. To this end human mononucleator cells were preliminarily incubated during three hours in the presence of different concentrations of each test substance. Each test substance was studied over a wide range of its concentrations, that is from […]. As a negative control there was added a physiological 0.9 percent solution of NaCl. The results of the influence of novel compoubds on the intensity of proliferation of human lymphocytes in the cell culture in vitro are represented in Table 3.

Tubazide-resistent H37Rv = format: in vivo, tuberculosis mycobacteria; mice of the CBA line; settings: Tubazide-resistent H37Rv
[6] = test system: antibody-forming cells (AFC) in the spleen; experiment: Humoral immunity, localized-in-gel hemolysis, AFC accumulation in spleen of immunized mice; format: in vivo, hybrid mice F1 (CBA/C57BL6)
Procedure: The influence on humoral immunity was studied using the method of localized-in-gel hemolysis. […] On the 5th day the number of antibody-forming cells (AFC) in the spleen of the mice was calculated and the immune response stimulation index was determined as the ratio of AFC number in the test group to the AFC number in the control group. The respective data are represented in Table 2.

macrophages = experiment: Phagocytic activity of macrophages (clearance from blood); format: in vivo, mice; settings: 500 μg per mouse per os
Source text: The influence of the preparations in question on the phagocytic activity of macrophages was studid from clearence of the carcass in blood taken from the retroorbital sinus of mice that received the preparations per os. The results were estimated on the phagocytic index α (see Table 4).

[7] = test system: antibody-forming cells (AFC) in the spleens; experiment: Antibody-forming cells in the spleen, immunodeficiency caused by irradiation (Jeme-Nordin's procedure); format: in vivo, mice F1 (CBA×C57BL/6); settings: irradiated mice 4 Gy
Procedure: Determination of immunotropic activity of isophonum was carried out. Immunotropic activity of isophonum was determined on a model of immunodeficiency caused by irradiation. To create an immunodeficient state the mice F1 (CBA×C57BL/6) were irradiated with gamma-rays on a radioterapeutic apparatus in a dose of 4 Gy (Gy is the irradiation unit gray) at an irradiation dose power of 0.55 Gr/min. The number of antibody-forming cells (AFC) in the spleens was calculated by Jeme-Nordin's procedure. Isophonum and diuciphonum were introduced per os over a wide range of doses. The investigation results are represented in Table 1.

[8] = due to impurities contained therein; cited from earlier work
[9] = after three months, 0.6 g daily

`Cc1[nH]c(=O)[nH]c(=O)c1S(=O)(=O)Nc1ccc(S(=O)(=O)c2ccc(NS(=O)(=O)c3c(C)[nH]c(=O)[nH]c3=O)cc2)cc1` [Diuciphonum, reference compound] showed a B-lymphocytes ([1]; after one month, 0.6 g daily) of 8.4 ± 0.6, a T-helpers ([1]; after one month, 0.6 g daily) of 32.4 ± 2.0 and a T-lymphocytes ([1]; after one month, 0.6 g daily) of 50.5 ± 2.1. For the same molecule, the T-suppressors ([1]; after one month, 0.6 g daily) was 20.1 ± 0.6, the “Th/Ts (immunoregulatory index)” value ([1]; after one month, 0.6 g daily) was 1.6 ± 0.1 and the B-lymphocytes [1, 9] was 9.0 ± 0.3. It also gave a T-helpers [1, 9] of 36.9 ± 2.3, a T-lymphocytes [1, 9] of 55.4 ± 2.4 and a T-suppressors [1, 9] of 20.0 ± 0.5. For the same molecule, the “Th/Ts (immunoregulatory index)” value [1, 9] was 1.8 ± 0.4, the B-lymphocytes ([1]; before treatment) was 6.3 ± 0.3 and the T-helpers ([1]; before treatment) was 16.8 ± 0.2. For the same molecule, the T-lymphocytes ([1]; before treatment) was 30.4 ± 0.4, the T-suppressors ([1]; before treatment) was 17.0 ± 0.4 and the “Th/Ts (immunoregulatory index)” value ([1]; before treatment) was 1.0. For the same molecule, the Damage index ([2]; dose not given) was 2.31 ± 0.24, the Life duration ([2]; dose not given) was 25.1 ± 2.8 and the “Weight of the lung” value ([2]; dose not given) was 580.4 ± 50.7. The toxicity [3] was 2600 mg/kg, the “Number of mycobacteria in the foot × 10^6” value [4] was 0.048 ± 0.007 × 10^6 and the “Percentage of infected animals” value [4] was 60%. The “Intensity of involvement of 3H-thymidine in DNA of cultivated cells, PHA-activated” value (“Intensity of involvement … PHA-activated” below) ([5]; 0.01 μg/ml) was 22811 impulse per minute, the “Intensity of involvement of 3H-thymidine in DNA of cultivated cells, Spontaneous” value (from here on “Intensity of involvement … Spontaneous”) ([5]; 0.01 μg/ml) was 860 impulse per minute and the “Intensity of involvement … PHA-activated” value ([5]; 0.03 μg/ml) was 24214 impulse per minute. The “Intensity of involvement … Spontaneous” value ([5]; 0.03 μg/ml) was 850 impulse per minute, the “Intensity of involvement … PHA-activated” value ([5]; 0.1 μg/ml) was 28946 impulse per minute and the “Intensity of involvement … Spontaneous” value ([5]; 0.1 μg/ml) was 804 impulse per minute. The “Intensity of involvement … PHA-activated” value ([5]; 1 μg/ml) was 26400 impulse per minute, the “Intensity of involvement … Spontaneous” value ([5]; 1 μg/ml) was 799 impulse per minute and the “Intensity of involvement … PHA-activated” value ([5]; 5 μg/ml) was 20150 impulse per minute. For the same molecule, the “Intensity of involvement … Spontaneous” value ([5]; 5 μg/ml) was 800 impulse per minute, the Damage index (Tubazide-resistent H37Rv; dose not given) was 2.27 ± 0.19 and the Life duration (Tubazide-resistent H37Rv; dose not given) was 24.9 ± 2.4. For the same molecule, the “Weight of the lung” value (Tubazide-resistent H37Rv; dose not given) was 602.7 ± 70.2, the “AFC-number in the spleen” value ([6]; 500 μg per mouse per os in starch suspension, 5th day after immunization) was 2250 ± 125 and the “Immune response stimulation index” value ([6]; 500 μg per mouse per os, ratio of AFC test group to control group) was 4.5. The Phagocytic index (macrophages) was 5.18 ± 0.04, the “Phagocytic index, percent of controls” value (macrophages; controls 100%) was “(123%)” and the “AFC-number in the spleen” value ([7]; 10 μg per mouse per os) was 768 ± 123. For the same molecule, the “Immune response stimulation index” value ([7]; 10 μg per mouse per os) was 2.5 ± 0.2, the “AFC-number in the spleen” value ([7]; 100 μg per mouse per os) was 870 ± 119 and the “Immune response stimulation index” value ([7]; 100 μg per mouse per os) was 2.9 ± 0.12. The “AFC-number in the spleen” value ([7]; 1000 μg per mouse per os) was 647 ± 64 and the “Immune response stimulation index” value ([7]; 1000 μg per mouse per os) was 2.1 ± 0.2.

In the case of `Cc1[nH]c(=O)[nH]c(=O)c1S(=O)(=O)NNC(=O)c1ccncc1` [N-(6-methyl-2,4-dioxo-1,2,3,4-tetrahydro-5-pyrimidinsulfon)-N′-isonicotinoylhydrazide], the “behaviour on prolonged storage” value [8] is given as “does not withstand prolonged storage conditions”.

For `NNC(=O)c1ccncc1` [Tubazide], the Damage index ([2]; 100 μg per mouse) was 2.16 ± 0.17, the “Weight of the lung” value ([2]; 100 μg per mouse) was 586.4 ± 47.2 and the Damage index ([2]; 200 μg per mouse) was 2.11 ± 0.18. For the same molecule, the Life duration ([2]; 200 μg per mouse) was 32.2 ± 4.4, the “Weight of the lung” value ([2]; 200 μg per mouse) was 550.6 ± 46.4 and the toxicity [3] was 150 mg/kg. The Damage index (Tubazide-resistent H37Rv; 100 μg per mouse) was 2.44 ± 0.24, the Life duration (Tubazide-resistent H37Rv; 100 μg per mouse) was 23.7 ± 2.4 and the “Weight of the lung” value (Tubazide-resistent H37Rv; 100 μg per mouse) was 628.7 ± 48.4. The Damage index (Tubazide-resistent H37Rv; 200 μg per mouse) was 2.01 ± 0.18, the Life duration (Tubazide-resistent H37Rv; 200 μg per mouse) was 30.2 ± 2.8 and the “Weight of the lung” value (Tubazide-resistent H37Rv; 200 μg per mouse) was 580.4 ± 46.4.
